In PMC9865188 (Pharmaceutics, 2023):
Where two headings read alike, the source gives them in different places.

Tests used:
[1] = cited from earlier work
[2] = Pharmacokinetic study in Sprague Dawley rats (oral gavage); format: in vivo; details: for concentration at 15 min / Cmax / AUC(0-t) / bioavailability / half-life: male, rat, plasma; for concentration at 15 min / Cmax: Sprague Dawley; for concentration at 15 min: oral, Etoposide C15min; for Cmax / AUC(0-t) / bioavailability / half-life: po; for Cmax: Etoposide Cmax; for AUC(0-t) / bioavailability / half-life: Sprague-Dawley; for AUC(0-t): Etoposide AUC0–6h; for bioavailability: Etoposide bioavailability; for half-life: Etoposide t½
Description: The study was conducted according to the European Convention for the Protection of Vertebrate Animals used for Experimental and other Scientific Purposes (ETS no. 123) and Belgian law controlling the experiments on animals (Royal Decree of 29 May 2013 for the protection of laboratory animals). Animals were allowed minimum five days to acclimatise upon arrival from the supplier, and they were housed in polysulphone cages (58 × 52 × 20 cm) in groups of six provided with wooden sticks for enrichment. Animals had free access to Safe 04 Maintenance Diet (Safe, Rosenberg, Germany) and water during acclimatisation and during the study.
Male Sprague Dawley rats (Charles River, Dortmund, Germany) weighing 293–358 g were randomly assigned into six groups of six animals. Formulations were prepared as clear solutions in 40% v/v ethanol–water and 10 mL/kg was administered to each animal by oral gavage. […] Plasma samples were taken by tail vein puncture with a needle followed by collection in 32–64 µL micro haematocrit tubes (Vitrex Medical, Herlev, Denmark) at times 15, 30, and 45 min and 1, 2, 3, 4, and 6 h. Samples were centrifuged, and plasma was transferred into 10 µL end-to-end pipettes (Vitrex Medical, Herlev, Denmark) and immediately frozen at −80 °C until bioanalysis. Immediately after the study, animals were euthanised according to the principles of euthanasia stated in the AVMA Guidelines for the Euthanasia of Animals (American Veterinary Medical Association, 2020). Plasma samples were analysed by a previously described qualified LC-MS/MS method.
Pharmacokinetic parameters were calculated individually for each animal subject and pooled for statistical analysis. The plasma concentration at 15 min (C15min) was reported as an average of the plasma concentration of the six animals in each group. […] Elimination rate constants (ke) were calculated by linear regression of the linear part of the ln(plasma concentration) versus time profiles, and plasma half-life (t½) was calculated from ke:(3) t½=ln (2)/ke

P-gp = P-gp (Homo sapiens, UniProt P08183); assay: Transcellular etoposide permeability across Caco-2 cell monolayers; details: Caco-2, spike method, 2.5 nM zosuquidar vs 2.5 nM zosuquidar + 0.2 µM polysorbate 20
Description: All were carried out in four independent cell passages. Transcellular permeability studies were performed in HEPES HBSS pH 7.4 and were assessed in the basolateral (B) to apical (A) and A–B direction for series (1) and (3) and in the B–A direction for series (2). […] Test solutions were either prepared by conventional serial dilution for series (1)–(2) or by a spike method for series (3).
Before the transport experiment, growth medium was removed from the cells by vacuum suction (Vacusip, Integra Biosciences, NH, USA), followed by a 10 min equilibration in HEPES HBSS pH 7.4 on a Talboys 1000 MP incubating microplate shaker (Troemner, NJ, USA, 220 rpm, 37 °C). Then, the buffer was removed, and donor and acceptor solutions were added, with a total of 500 and 1000 µL to the A and B compartment, respectively. […] At 120 min, a sample was taken from the donor compartment and diluted in mobile phase. Samples were analysed by HPLC-FL, and for series (2) and (3), 50 µL sample was transferred to a black, clear-bottom 96-well plate for lucifer yellow quantification.
Papp was calculated by dividing the flux with the measured donor concentration.

[3] = group D*: etoposide 20 mg/kg oral alone
[4] = group F*: etoposide 20 mg/kg + zosuquidar 0.63 mg/kg oral
[5] = group G*: etoposide 20 mg/kg + zosuquidar 2.0 mg/kg oral
[6] = group H*: etoposide 20 mg/kg + zosuquidar 6.3 mg/kg oral
[7] = group B: etoposide 20 mg/kg + zosuquidar 0.63 mg/kg + 1.0% v/v polysorbate 20 oral
[8] = group D: etoposide 20 mg/kg + zosuquidar 2.0 mg/kg + 5.0% v/v polysorbate 20 oral
[9] = group E: etoposide 20 mg/kg + zosuquidar 6.3 mg/kg + 5.0% v/v polysorbate 20 oral
[10] = group F: etoposide 20 mg/kg + zosuquidar 6.3 mg/kg + 10% v/v polysorbate 20 oral
[11] = 20 mg/kg, group A: etoposide 20 mg/kg + 1.0% v/v polysorbate 20 oral
[12] = 20 mg/kg, group C: etoposide 20 mg/kg + 5.0% v/v polysorbate 20 oral
[13] = 20 mg/kg, group B: etoposide 20 mg/kg + zosuquidar 0.63 mg/kg + 1.0% v/v polysorbate 20 oral
[14] = 20 mg/kg, group D: etoposide 20 mg/kg + zosuquidar 2.0 mg/kg + 5.0% v/v polysorbate 20 oral
[15] = 20 mg/kg, group E: etoposide 20 mg/kg + zosuquidar 6.3 mg/kg + 5.0% v/v polysorbate 20 oral
[16] = 20 mg/kg, group F: etoposide 20 mg/kg + zosuquidar 6.3 mg/kg + 10% v/v polysorbate 20 oral

Sequence of P-gp (P08183 whole entry): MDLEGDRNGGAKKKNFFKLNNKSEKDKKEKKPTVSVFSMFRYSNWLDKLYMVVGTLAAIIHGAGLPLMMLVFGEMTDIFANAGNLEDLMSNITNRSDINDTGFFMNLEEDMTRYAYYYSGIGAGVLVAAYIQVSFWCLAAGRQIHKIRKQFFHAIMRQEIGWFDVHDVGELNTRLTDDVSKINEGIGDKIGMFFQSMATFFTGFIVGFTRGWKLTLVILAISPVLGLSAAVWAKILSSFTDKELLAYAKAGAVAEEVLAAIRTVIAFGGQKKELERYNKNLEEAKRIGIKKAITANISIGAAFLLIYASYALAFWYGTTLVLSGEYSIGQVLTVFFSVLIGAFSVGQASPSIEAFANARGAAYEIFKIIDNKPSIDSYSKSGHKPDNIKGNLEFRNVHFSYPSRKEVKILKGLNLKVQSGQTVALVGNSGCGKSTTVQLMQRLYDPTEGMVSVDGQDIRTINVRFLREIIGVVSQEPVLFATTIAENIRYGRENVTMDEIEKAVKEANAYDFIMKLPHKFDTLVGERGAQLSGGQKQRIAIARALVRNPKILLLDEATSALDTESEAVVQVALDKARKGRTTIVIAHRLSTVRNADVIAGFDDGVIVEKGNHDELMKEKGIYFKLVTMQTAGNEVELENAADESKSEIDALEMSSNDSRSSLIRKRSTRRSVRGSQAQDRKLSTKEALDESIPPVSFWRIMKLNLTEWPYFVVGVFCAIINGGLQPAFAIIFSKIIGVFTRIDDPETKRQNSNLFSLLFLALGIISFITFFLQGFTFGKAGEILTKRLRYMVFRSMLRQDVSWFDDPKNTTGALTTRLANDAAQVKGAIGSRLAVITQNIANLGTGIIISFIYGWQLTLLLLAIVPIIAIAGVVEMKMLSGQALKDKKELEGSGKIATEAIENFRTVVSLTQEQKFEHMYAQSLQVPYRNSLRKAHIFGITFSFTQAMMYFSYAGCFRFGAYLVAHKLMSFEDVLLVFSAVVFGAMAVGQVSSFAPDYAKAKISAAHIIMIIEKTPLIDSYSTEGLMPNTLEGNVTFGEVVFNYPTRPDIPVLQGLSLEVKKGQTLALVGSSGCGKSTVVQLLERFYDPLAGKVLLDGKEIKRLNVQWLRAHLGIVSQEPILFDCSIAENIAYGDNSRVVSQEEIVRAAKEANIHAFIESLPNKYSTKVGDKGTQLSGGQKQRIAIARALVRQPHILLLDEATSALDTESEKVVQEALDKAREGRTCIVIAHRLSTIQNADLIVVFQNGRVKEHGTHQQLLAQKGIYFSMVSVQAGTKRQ

- Etoposide tmax, median [Q1; Q3] ([2]; group A: etoposide 20 mg/kg + 1.0% v/v polysorbate 20 oral): 30 [30;34] min
- Etoposide tmax, median [Q1; Q3] [2, 7]: 45 [30;49] min
- Etoposide tmax, median [Q1; Q3] ([2]; group C: etoposide 20 mg/kg + 5.0% v/v polysorbate 20 oral): 30 [26;30] min
- Etoposide tmax, median [Q1; Q3] [2, 8]: 38 [30;60] min
- Etoposide tmax, median [Q1; Q3] [2, 9]: 45 [41;49] min
- Etoposide tmax, median [Q1; Q3] [2, 10]: 45 [41;60] min
- Etoposide t½ [2, 10]: 56.4 ± 2.2 min
- concentration at 15 min [2, 11]: 404 ± 58 ng/mL
- concentration at 15 min [2, 12]: 1130 ± 140 ng/mL
- concentration at 15 min [2, 7]: 1140 ± 120 ng/mL
- concentration at 15 min [2, 8]: 1010 ± 100 ng/mL
- concentration at 15 min [2, 9]: 923 ± 103 ng/mL
- concentration at 15 min [2, 10]: 579 ± 52 ng/mL
- Cmax [2, 11]: 711 ± 86 ng/mL
- Cmax [2, 13]: 1750 ± 160 ng/mL
- Cmax [2, 12]: 1220 ± 140 ng/mL
- Cmax [2, 14]: 1430 ± 180 ng/mL
- Cmax [2, 15]: 1300 ± 130 ng/mL
- Cmax [2, 16]: 1020 ± 70 ng/mL
- AUC(0-t) [2, 11]: 921 ± 84 ng·h/mL
- AUC(0-t) [2, 13]: 2610 ± 240 ng·h/mL
- AUC(0-t) [2, 12]: 1970 ± 240 ng·h/mL
- AUC(0-t) [2, 14]: 3080 ± 380 ng·h/mL
- AUC(0-t) [2, 15]: 2800 ± 200 ng·h/mL
- AUC(0-t) [2, 16]: 2310 ± 160 ng·h/mL
- bioavailability [2, 11]: 5.35 ± 0.49%
- bioavailability [2, 13]: 15.2 ± 1.4%
- bioavailability [2, 12]: 11.5 ± 1.4%
- bioavailability [2, 14]: 17.9 ± 2.2%
- bioavailability [2, 15]: 16.3 ± 1.2%
- bioavailability [2, 16]: 13.4 ± 1%
- half-life [2, 11]: 42.4 ± 2.4 min
- half-life [2, 13]: 37.2 ± 1.2 min
- half-life [2, 12]: 43.3 ± 2 min
- half-life [2, 14]: 52.9 ± 2.8 min
- half-life [2, 15]: 54.7 ± 4.5 min
- difference in mean etoposide Papp (P-gp): no difference
SMILES: COc1cc([C@@H]2c3cc4c(cc3[C@@H](O[C@@H]3O[C@@H]5CO[C@@H](C)O[C@H]5[C@H](O)[C@H]3O)[C@H]3COC(=O)[C@H]23)OCO4)cc(OC)c1O [etoposide]
- Etoposide AUC0–6h [1, 3]: 947 ± 156 ng·h/mL
- Etoposide Cmax [1, 3]: 390 ± 84 ng/mL
- Etoposide bioavailability [1, 3]: 5.51 ± 0.91%
- Etoposide tmax, median [Q1; Q3] [1, 3]: 15 [15;30] min
- Etoposide t½ [1, 3]: 80.8 ± 13.2 min
- Etoposide AUC0–6h [1, 4]: 2470 ± 440 ng·h/mL
- Etoposide Cmax [1, 4]: 1590 ± 290 ng/mL
- Etoposide bioavailability [1, 4]: 14.4 ± 2.5%
- Etoposide tmax, median [Q1; Q3] [1, 4]: 45 [15;45] min
- Etoposide t½ [1, 4]: 39.3 ± 3.0 min
- Etoposide AUC0–6h [1, 5]: 3860 ± 500 ng·h/mL
- Etoposide Cmax [1, 5]: 2240 ± 540 ng/mL
- Etoposide bioavailability [1, 5]: 22.4 ± 2.9%
- Etoposide tmax, median [Q1; Q3] [1, 5]: 38 [26;60] min
- Etoposide t½ [1, 5]: 51.4 ± 2.4 min
- Etoposide AUC0–6h [1, 6]: 4270 ± 470 ng·h/mL
- Etoposide Cmax [1, 6]: 2110 ± 200 ng/mL
- Etoposide bioavailability [1, 6]: 24.8 ± 2.7%
- Etoposide tmax, median [Q1; Q3] [1, 6]: 45 [15;60] min
- Etoposide t½ [1, 6]: 56.5 ± 4.8 min
